Laboratory results published in publication PMC4337988 (Science (New York, N.Y.), 2014).

Legend:
BcPyrR = BcPyrR ([Bacillus] caldolyticus, UniProt P41007); experiment: SEC-MALS; format: binding; conditions: 50 mM Tris pH 7.5, 150 mM NaCl, 1 mM DTT, room temperature; allosteric
BsPyrR = BsPyrR (Bacillus subtilis, UniProt P39765); experiment: SEC-MALS; format: binding; conditions: 50 mM Tris pH 7.5, 150 mM NaCl, 1 mM DTT, room temperature; allosteric
Chain of BsPyrR (P39765 whole entry): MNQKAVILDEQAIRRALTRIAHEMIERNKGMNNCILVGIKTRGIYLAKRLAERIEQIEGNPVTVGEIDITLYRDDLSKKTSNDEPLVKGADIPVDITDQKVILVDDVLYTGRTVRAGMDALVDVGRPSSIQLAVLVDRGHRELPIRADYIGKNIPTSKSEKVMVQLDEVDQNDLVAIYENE

Chain of BcPyrR (P41007 whole entry): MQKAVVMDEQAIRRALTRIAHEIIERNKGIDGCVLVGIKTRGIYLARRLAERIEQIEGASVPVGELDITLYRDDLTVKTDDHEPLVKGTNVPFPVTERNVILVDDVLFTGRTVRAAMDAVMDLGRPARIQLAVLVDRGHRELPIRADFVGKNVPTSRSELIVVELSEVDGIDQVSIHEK

Row | Structure (SMILES) | SEC-MALS (oligomeric state shift) (BcPyrR) | SEC-MALS (oligomeric state shift) (BsPyrR)
1 | Nc1nc2c(ncn2[C@@H]2O[C@H](COP(=O)(O)O)[C@@H](O)[C@H]2O)c(=O)[nH]1 [GMP] | We analysed the oligomeric state of BsPyrR and BcPyrR by SEC-MALS upon addition of allosteric ligands | –
2 | O=c1ccn([C@@H]2O[C@H](COP(=O)(O)O)[C@@H](O)[C@H]2O)c(=O)[nH]1 [UMP] | both UMP and GMP stabilize the tetrameric state of PyrR | both UMP and GMP stabilize the tetrameric state of PyrR
